Patent US20260108527A1, “POLO LIKE KINASE 4 INHIBITORS” (ORIC Pharmaceuticals, Inc., priority 2022, published 2026)

Columns and labels:
[1] = system: CHP134; test: CHP134 CellTiter-Glo (CTG) Assay; format: cell-based; settings: Homo sapiens, CHP-134, 120 h; viable cells by CellTiter-Glo after 5 days
In short: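 CHP134 cells were seeded at 200 cells/well for 16 h, then treated in quadruplicate with nine-point 1:3 serial dilutions at 37 °C, 5% CO2. Viable cells were read by CellTiter-Glo luminescence after 5 days, and IC50 values were derived from the dose-response curves.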

[2] = biological target: T1, human recombinant Aurora B (Homo sapiens, UniProt Q96GD4); test: Aurora B Kinase Biochemical Assay (ADP-Glo); settings: selectivity ratio; Aurora B 10 nM, 114 μM ATP
T1 construct: purchased ThermoFisher PR9210B
T1 sequence (Q96GD4 whole entry): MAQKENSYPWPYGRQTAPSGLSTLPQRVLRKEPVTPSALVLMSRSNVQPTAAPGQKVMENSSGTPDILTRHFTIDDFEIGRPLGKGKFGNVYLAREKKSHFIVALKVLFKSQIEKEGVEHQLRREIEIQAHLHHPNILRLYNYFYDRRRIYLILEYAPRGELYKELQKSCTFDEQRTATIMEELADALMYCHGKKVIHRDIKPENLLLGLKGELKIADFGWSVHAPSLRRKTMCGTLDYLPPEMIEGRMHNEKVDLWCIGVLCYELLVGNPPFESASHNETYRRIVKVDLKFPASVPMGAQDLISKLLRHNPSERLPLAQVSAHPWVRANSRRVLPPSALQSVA
In short: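 Aurora B (10 nM) was pre-incubated with compound for 15 min, then reacted with 114 μM ATP and 4.7 μM MBP for 2 h at RT in 50 mM HEPES pH 7.5, 10 mM MgCl2, 1 mM DTT. ADP was read by ADP-Glo luminescence, and IC50 values came from four-parameter fits of 11-point, 3-fold titrations in duplicate.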

[3] = biological target: T2, human recombinant PLK4 (Homo sapiens, UniProt O00444); test: PLK4 Biochemical Assay (ADP-Glo); settings: 0.5 nM PLK4, 8.0 μM ATP, 4.7 μM MBP, 6 hours at RT
T2 construct: purchased ThermoFisher PV6396
T2 sequence (O00444 1-970): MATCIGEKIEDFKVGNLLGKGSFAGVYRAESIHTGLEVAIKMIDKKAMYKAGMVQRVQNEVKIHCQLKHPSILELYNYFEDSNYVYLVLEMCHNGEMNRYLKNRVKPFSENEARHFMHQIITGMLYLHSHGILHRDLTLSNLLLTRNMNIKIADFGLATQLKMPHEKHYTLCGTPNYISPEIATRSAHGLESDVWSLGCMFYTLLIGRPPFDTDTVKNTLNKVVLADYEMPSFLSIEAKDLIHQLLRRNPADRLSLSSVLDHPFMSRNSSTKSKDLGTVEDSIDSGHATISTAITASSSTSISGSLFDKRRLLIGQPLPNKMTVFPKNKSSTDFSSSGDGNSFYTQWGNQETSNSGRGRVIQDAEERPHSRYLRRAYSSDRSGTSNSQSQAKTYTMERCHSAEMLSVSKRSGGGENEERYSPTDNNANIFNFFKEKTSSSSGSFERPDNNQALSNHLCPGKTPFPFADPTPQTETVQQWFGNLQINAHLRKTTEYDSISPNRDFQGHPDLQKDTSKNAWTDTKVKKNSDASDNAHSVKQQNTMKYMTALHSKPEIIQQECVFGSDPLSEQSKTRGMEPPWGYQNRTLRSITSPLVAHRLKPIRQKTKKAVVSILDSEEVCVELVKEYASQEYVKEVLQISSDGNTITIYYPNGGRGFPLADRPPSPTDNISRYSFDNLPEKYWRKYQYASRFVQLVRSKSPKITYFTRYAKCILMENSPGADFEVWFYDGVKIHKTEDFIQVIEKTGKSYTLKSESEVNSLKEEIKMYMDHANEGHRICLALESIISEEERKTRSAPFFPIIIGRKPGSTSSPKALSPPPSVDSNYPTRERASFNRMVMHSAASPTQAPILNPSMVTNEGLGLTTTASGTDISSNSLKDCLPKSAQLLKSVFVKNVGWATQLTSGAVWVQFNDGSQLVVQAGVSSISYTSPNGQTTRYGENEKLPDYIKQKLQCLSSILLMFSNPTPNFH
In short: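 PLK4 at 1.0 nM in HEPES pH 7.5 buffer with 10 mM MgCl2, 1 mM EGTA, 1 mM DTT, preincubated 15 min at RT with compound. ADP formed quantified by ADP-Glo luminescence after ATP depletion. IC50 from four-parameter non-linear regression.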

COc1ccc2c(c1)[C@]1(C[C@H]1c1ccc3c(Nc4ccc(S(C)(=O)=O)cc4OC)n[nH]c3c1)C(=O)N2 [Example 2, (1R,2S)-2-{3-[4-(methanesulfonyl)-2-methoxyanilino]-1H-indazol-6-yl}-5′-methoxyspiro[cyclopropane-1,3′-indol]-2′(1′H)-one]
IC50 [1]: 88.9 nM | [Aurora B IC50 (nM)]/[PLK4 IC50 (nM)] [2]: 229.2462 | IC50 [3]: 0.576 nM
